# Source: patent US4847303A, “Tert-butylphenyl compounds useful as anti-inflammatory agents” (The Procter & Gamble Company, priority 1987, dated 1989)
# Tested on: Carrageenan Rat Paw Edema
# Assay: Carrageenan Rat Paw Edema Test
# Type: in vivo, rat (male Sprague-Dawley)
# Details: 100 mg/kg P.O.; carrageenan 1 h after dosing, paw volume 4 h after carrageenan; all values statistically significant from control at P ≤ 0.05
# Description: Carrageenan Rat Paw Edema Test
# Male Sprague-Dawley rats (Charles River Laboratories) are weighed and food fasted overnight. The animals are then divided into four to six groups of six animals each according to body weights (average about 145 g) so that each group has about the same average body weight (within 10 g).
# The following morning animals are dosed with the test compound and then placed in individual cages. For oral dosing, the drug is suspended in 0.5% methyl cellulose with 2% Tween 80, and delivered via stomach tube in a 5 ml volume.
# Paw volumes (0 time) are determined on both hind paws with a mercury displacement device equipped with a transducer and digitizer. One hour after dosing the test compound, the animals are placed in a plastic restrainer and 50 ul of a 1% (w/w) carrageenan solution in 0.9% saline is injected into the ventral surface of the left rear paw. Four hours after the carrageenan injection, the paw volumes are again determined.
# The results are expressed as percent inhibition of the mean paw volume of the test group relative to the control group. Statistical differences are determined by one way analysis of variance.
row,SMILES,Percent Inhibition at 100 mg/kg dosed P.O (mean paw volume of the test group relative to the control group) [%]
1,"C#CCCCC(=O)c1cc(C)c(O)c(C(C)(C)C)c1 [Example 1, 2-methyl-4-(5'-hexynoyl)-6-t-butylphenol]",75.4
2,"C#CCCCC(=O)c1cc(C(C)(C)C)c(O)c(C(C)(C)CO)c1 [Example 2, 2-(2-hydroxy-1,1-dimethyl-ethyl)-4-(5'-hexynoyl)-6-t-butylphenol]",48.4
3,"C#CCCCC(=O)c1cc(CC=C)c(O)c(C(C)(C)C)c1 [Example 3, 1-Allyl-4-(5'-hexynoyl)-6-t-butylphenol]",65.8
4,"C#CCCCC(=O)c1cc(CCC)c(O)c(C(C)(C)C)c1 [Example 4, 2-n-propyl-4-(5'-hexynoyl)-6-t-butylphenol]",53.2
5,"C#CCCCC(=O)c1cc(C(C)C=C)c(O)c(C(C)(C)C)c1 (stereo not drawn) [Example 5, 2-s-(3-butenyl)-4-(5'-hexynoyl)-6-t-butylphenol]",90.8
6,"C#CCCCC(=O)c1cc(C(C)CC)c(O)c(C(C)(C)C)c1 (stereo not drawn) [Example 6, 2-s-butyl-4-(5'-hexynoyl)-6-t-butylphenol]",51.5
